Assay results: patent US20100179225A1, “POI Prevention” (CYTOKINE PHARMASCIENCES, INC., priority 2008, published 2010)

What was measured:
IL-6 mRNA = test: Proinflammatory gene expression in ME, real-time RT-PCR: IL-6; format: in vivo, mice; settings: 5 mg/kg i.v. preoperative; 6 hours after IM; vs placebo IM
Source text: The small bowel of the animals was subjected to a standardized, surgical manipulation (IM) as described previously (Kalff J C, Schraut W H, Simmons R L et al. Surgical manipulation of the gut elicits an intestinal muscularis inflammatory response resulting in postsurgical ileus. Ann Surg 1998; 228:652-663; Wehner S, Schwarz N T, Hundsdoerfer R et al. Induction of IL-6 within the rodent intestinal muscularis after intestinal surgical stress. Surgery 2005; 137:436-446). In brief, after anesthesia a midline abdominal incision was made into the peritoneal cavity. […]
(§1) Proinflammatory gene expression was analyzed in placebo and CNI-1493 (5 mg/kg) treated animals at 1, 3, 6 and 24 hours after operation; n=5-7 each group. […] Total RNA was analyzed in ME specimen that was prepared as described before (Wehner S, Behrendt F F, Lyutenski B N et al. Inhibition of macrophage function prevents intestinal inflammation and postoperative ileus in rodents. Gut 2007; 56:176-185). […] Expression of mRNA was quantified in triplicate by a RT-PCR with gene expression assays for […] (MCP-1; #Mm00441242_m1), CCL3 (MIP-1α #Mm00441258_m1), IL-6 (Assay ID #Mm00446190_ml), TNF-α (#Mm00443258_m1) and ICAM-1 (#Mm00516023_m1). […] Data quantification was performed by the ΔΔCT method. […]

C57BL/6J mice = test: Anastomotic wound healing (hydroxyproline content, bursting pressure), mouse; format: in vivo; settings: 5 mg/kg i.v. 90 minutes before transection; POD 2, 5 and 10
Experimental: C57BL/6J mice were treated with 0 mg/kg (placebo) or 5 mg/kg CNI-1493 90 minutes before colonic transection followed by an anastomosis with 8-10 interrupted polypropylene 8.0 sutures. On postoperative days (POD) 2, 5 and 10 anastomotic tissue was investigated for disturbances of wound healing by measurement of hydroxyproline content and bursting pressure.
Hydroxyproline content was determined from an 1 cm perianastomotic region as described before (Woessner J. F., Jr. The determination of hydroxyproline in tissue and protein samples containing small proportions of this imino acid. Arch Biochem Biophys 1961; 93:440-447). Results were normalized as micrograms of hydroxyproline per gram tissue.
Anastomotic bursting pressure (ABP) was measured directly after sacrifice and sampling a 3 cm colonic segment including the anastomotic site. The anastomotic specimen was cleared from feces and ligated twice at the distal end using a 6-0 polyglactin (Vicryl™, Ethicon, Belgium) suture. An 18 G arterial catheter (Vygon, France) was inserted intraluminally within the specimen at the proximal end and two stay sutures were tied to prevent leakage. […] The intraluminal pressure (mmHg) was measured and recorded using a pressure transducer with an amplifier and recorded by the Biopac A/D systems (Biopac Systems, Goleta, USA). […]

MCP-1 mRNA = test: Proinflammatory gene expression in ME, real-time RT-PCR: MCP-1; format: in vivo, mice; settings: 5 mg/kg i.v. preoperative
Source text: The small bowel of the animals was subjected to a standardized, surgical manipulation (IM) as described previously (Kalff J C, Schraut W H, Simmons R L et al. Surgical manipulation of the gut elicits an intestinal muscularis inflammatory response resulting in postsurgical ileus. Ann Surg 1998; 228:652-663; Wehner S, Schwarz N T, Hundsdoerfer R et al. Induction of IL-6 within the rodent intestinal muscularis after intestinal surgical stress. Surgery 2005; 137:436-446). In brief, after anesthesia a midline abdominal incision was made into the peritoneal cavity. The entire small bowel was eventuated and manipulated with standardized moderate intensity using two moist cotton applicators as described previously. After IM, the laparotomy was closed by one layer of continuous suture, except when probe sampling was conducted within 20 minutes after surgery. These animals were held in anesthesia and the abdomen was closed by a clamp and protected with sterile gauze. All other animals recovered rapidly from the bowel manipulation procedure. Control animals exclusively underwent laparotomy without eventration and IM (sham operation).
Animals within examples referring to FIGS. 2-9 were treated 90 minutes before operation with 0 mg/kg (placebo group), or 5 mg/kg bodyweight CNI-1493. […]
as §1

[1] = test system: nitric oxide (NO) production in ME; test: Nitric oxide release from rat ME cultures (Griess reaction) after IM; format: in vivo; settings: rats
Experimental: Animals underwent IM after intravenous CNI-1493 (5 mg/kg) or oral CPSI-2364 (1 mg/kg or 0.1 mg/kg) administration 90 minutes before surgery. Control animals received CNI-1493 (5 mg/kg) intravenously or CPSI-2364 orally (1 mg/kg or 0.1 mg/kg), but were not operated.
Total ME from small intestine was isolated 24 h after operation as described above and then cut into small pieces and washed for 30 minutes in PBS containing a penicillin/streptomycin (200U/200 μg) mixture. Aliquots of ˜50 mg were incubated in 1 mL of DMEM at 37° C. and 5% CO2 for further 24 hours and tissue culture supernatants were frozen in liquid nitrogen. The muscle tissue was blotted dry, and the exact weight was measured. To quantify the generation of NO from intestinal smooth muscle preparations, nitrite production was measured by the Griess reaction as described previously (Kalff J C, Schraut W H, Billiar T R et al. Role of inducible nitric oxide synthase in postoperative intestinal smooth muscle dysfunction in rodents. Gastroenterology 2000; 118:316-327). In brief, supernatant from the tissue culture was mixed with an equal volume of Griess reagent (0.1% N-(1-napthyl)ethyl-enediamine dihydrochloride and 1% sulfanilamide in 6% phosphoric acid; 1:1) and incubated for 10 minutes. The absorbance at 550 nm was measured with a microplate reader and compared with standard dilutions of sodium nitrite. […]

| anastomotic bursting pressure vs placebo (C57BL/6J mice) | anastomotic hydroxyproline content vs placebo (C57BL/6J mice) | Structure (SMILES) | IL-6 expression diminished (IL-6 mRNA) | MCP-1 mRNA expression (fold upregulation) (MCP-1 mRNA; 3 hours after IM) [fold] | MCP-1 mRNA expression (fold upregulation) (MCP-1 mRNA; 6 hours after IM) [fold] | MCP-1 mRNA expression (fold upregulation) (MCP-1 mRNA; 24 hours after IM) [fold] | NO production from ME vs placebo IM ([1]; 0.1 mg/kg bodyweight p.o.) | NO production from ME vs placebo IM ([1]; p.o. preoperative (FIG. 12)) |
| --- | --- | --- | --- | --- | --- | --- | --- | --- |
| did not differ at any time | did not differ at any time | C/C(=N\N=C(N)N)c1cc(NC(=O)CCCCCCCCC(=O)Nc2cc(/C(C)=N/N=C(N)N)cc(/C(C)=N/N=C(N)N)c2)cc(/C(C)=N/N=C(N)N)c1.Cl.Cl.Cl.Cl [CNI-1493] | more than 55% | 142±45 | 317±143 | 92±44 | – | – |
| – | – | C/C(=N\N=C(N)N)c1cc(NC(=O)CCCCCCCCC(=O)Nc2cc(/C(C)=N/N=C(N)N)cc(/C(C)=N/N=C(N)N)c2)cc(/C(C)=N/N=C(N)N)c1.CS(=O)(=O)O.CS(=O)(=O)O.CS(=O)(=O)O.CS(=O)(=O)O [CPSI-2364] | – | – | – | – | led to the described results | significantly diminished |
